Test results: the supplement of paper PMC11003180

Experiments:
Assay in all cases: drug sensitivity score (DSS) from 5-dose viability curve (DSS (area-based score, 0 = no response)); higher = more sensitive (stronger viability inhibition); extreme values may be limits of the assay
[1] = tested on: MDCK wild-type - doxycycline; settings: doxycycline: none; 72 h
Procedure, shortened: (§1)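 Parental MDCK cells without doxycycline were dispensed at 2000 cells/well onto pre-spotted 384-well plates. The plates held an oncology library of 528 drugs at five doses (1-10,000 nM) and were incubated 72 h at 37 °C. Viability was read as CellTiter-Glo luminescence and scaled per plate between vehicle and positive controls. Drug sensitivity scores came from dose-response curve fits in the Breeze pipeline.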

[2] = tested on: MDCK p60AmotL2-inducible + doxycycline (p60AmotL2 expressing); settings: doxycycline: 10 ng/mL; 72 h
Procedure, shortened: as §1, with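 “and MDCK cells with doxycycline-inducible p60AmotL2, both given” for “without”, “doxycycline at 10 ng/mL in the medium before plating,” for “doxycycline”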

[3] = tested on: MDCK wild-type + doxycycline; settings: doxycycline: 10 ng/mL; 72 h
Procedure, shortened: as §1, with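 “and MDCK cells with doxycycline-inducible p60AmotL2, both given” for “without”, “doxycycline at 10 ng/mL in the medium before plating,” for “doxycycline”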

| Structure (SMILES) | drug sensitivity score [1] | drug sensitivity score [2] | drug sensitivity score [3] |
| --- | --- | --- | --- |
| CC(C)(C)C[C@@H]1N[C@@H](C(=O)N[C@H]2CC[C@H](O)CC2)[C@H](c2cccc(Cl)c2F)[C@]12C(=O)Nc1cc(Cl)ccc12 | 2.9 | 7.2 | 4.7 |
| c1cn2cc(-c3ccc4cn[nH]c4c3)nc(Nc3ccc(N4CCOCC4)cc3)c2n1 [Entospletinib] | 0 | 0 | 0 |
| CC[C@@H]1[C@H](F)C(=O)N[C@@H]1COc1nccc2cc(C(N)=O)c(OC)cc12 | 0 | 0.2 | 0.8 |
| CCNC(=O)C[C@@H]1N=C(c2ccc(Cl)cc2)c2cc(OC)ccc2-n2c(C)nnc21 [Molibresib] | 0.9 | 9.5 | 2.9 |
| CC[C@H](C)C(=O)O[C@H]1C[C@@H](C)C=C2C=C[C@H](C)[C@H](CC[C@@H]3C[C@@H](O)CC(=O)O3)[C@H]21 [Lovastatin] | 0 | 0 | 0 |
| CO[C@@]12[C@H](COC(N)=O)C3=C(C(=O)C(C)=C(N)C3=O)N1C[C@@H]1N[C@@H]12 [Mitomycin C] | 1.2 | 0 | 0 |
| Cc1cc(C(C)Nc2ccccc2)c2nc(N3CCOCC3)cc(=O)n2c1 (stereo not given) [TGX-221] | 0 | 0.3 | 0.4 |
| Cc1nc(C(=O)NCC(=O)O)c(O)c2ccc(Oc3ccccc3)cc12 [Roxadustat] | 0 | 0 | 0 |
| CC1(C)NC(=O)N(c2ccc([N+](=O)[O-])c(C(F)(F)F)c2)C1=O [Nilutamide] | 0 | 0 | 0 |
| Cc1ccc(F)c(NC(=O)Nc2ccc(-c3cccc4[nH]nc(N)c34)cc2)c1 [Linifanib] | 0 | 0 | 0 |
| O=C1Cc2cc(C(=O)NC3C[C@H]4CC[C@@H](C3)N4S(=O)(=O)CC3CCN(CCCC(F)(F)F)CC3)c(Cl)cc2N1 (stereo not given in full) | 0 | 0 | 0 |
| COc1cc(C)[nH]c(=O)c1CNC(=O)c1c(C)n([C@H](C)C2CCOCC2)c2ccccc12 [CPI-360] | 0 | 1.3 | 0.1 |
| COc1cccc2c1C(=O)c1c(O)c3c(c(O)c1C2=O)C[C@@](O)(/C(CO)=N/NC(=O)CCCCCN1C(=O)C=CC1=O)C[C@@H]3O[C@H]1C[C@H](N)[C@H](O)[C@H](C)O1 [Aldoxorubicin] | 4.5 | 11.2 | 8.6 |
| CC[C@H](C)C(=O)O[C@H]1C[C@H](O)C=C2C=C[C@H](C)[C@H](CC[C@@H](O)C[C@@H](O)CC(=O)O)[C@H]21 [Pravastatin] | 0 | 0 | 0 |
| Nc1nc(Cl)nc2c1ncn2[C@@H]1O[C@H](CO)[C@@H](O)[C@@H]1F [Clofarabine] | 12.1 | 13.8 | 12.9 |
| S=c1[nH]cnc2nc[nH]c12 [Mercaptopurine] | 2.1 | 1.6 | 1.8 |
| Cc1nn(C)c(COc2ccc(N3CCN(S(=O)(=O)N(C)C)CC3)cc2)c1-c1cccc2c(CCCOc3cccc4ccccc34)c(C(=O)O)n(CCN3CCOCC3)c12 | 5.1 | 5.3 | 5.3 |
| O=C(O)CC[C@H]1CC[C@@](c2cc(F)ccc2F)(S(=O)(=O)c2ccc(Cl)cc2)CC1 [MK-0752] | 0 | 0 | 0 |
| O=C(Nc1cccc(Nc2ncc(Br)c(NCCc3cnc[nH]3)n2)c1)N1CCCC1 [BX-912] | 0.1 | 4.1 | 0.8 |
| O=C(Nc1ccc(OC(F)(F)Cl)cc1)c1cnc(N2CC[C@@H](O)C2)c(-c2cc[nH]n2)c1 [Asciminib] | 0 | 0 | 0 |
| CC(C)C[C@H](NC(=O)[C@H](Cc1ccccc1)NC(=O)c1cnccn1)B(O)O [Bortezomib] | 26.7 | 25 | 25.9 |
| CCN(CC)CCNC(=O)c1c(C)[nH]c(/C=C2\C(=O)Nc3ccc(-c4csc(-c5ccccc5)n4)cc32)c1C [Amcasertib] | 0 | 0 | 0 |
| Nc1ccccc1NC(=O)c1ccc(CNc2nccc(-c3cccnc3)n2)cc1 [Mocetinostat] | 8.1 | 6.2 | 8.4 |

| Structure (SMILES) | drug sensitivity score [1] | drug sensitivity score [2] | drug sensitivity score [3] |
| --- | --- | --- | --- |
| CCCCNc1ncc(C(=O)NCc2ccc(-n3ccnc3)cc2)c(NC2CCC(O)CC2)n1 (stereo not given) [UNC2881] | 0 | 1.9 | 0 |
| COc1cc2c(N3CCN(C(=O)Nc4ccc(OC(C)C)cc4)CC3)ncnc2cc1OCCCN1CCCCC1 [Tandutinib] | 0 | 0 | 0 |
| Cc1cc(Nc2ncnc3ccc(NC4=NC(C)(C)CO4)cc23)ccc1Oc1ccn2ncnc2c1 [Tucatinib] | 0 | 0 | 0 |
| CC1=C(/C=C/C(C)=C/C=C/C(C)=C/C(=O)O)C(C)(C)CCC1 [Tretinoin] | 0.7 | 0 | 0 |
| CC(=O)OC[C@H]1O[C@@H]([S-])[C@H](OC(C)=O)[C@@H](OC(C)=O)[C@@H]1OC(C)=O.CCP(CC)CC.[Au+] [Auranofin] | 4.2 | 4.7 | 4.2 |
| CCOc1ccn(-c2ccc(F)cc2)c(=O)c1C(=O)Nc1ccc(Oc2ccnc(N)c2Cl)c(F)c1 | 0 | 0 | 0 |
| CC[C@@H]1C(=O)N(C)c2cnc(Nc3ccc(C(=O)NC4CCN(C)CC4)cc3OC)nc2N1C1CCCC1 [BI 2536] | 19.9 | 15.9 | 15.6 |
| C[C@@H](Oc1cc(-n2cnc3ccc(CN4CCN(C)CC4)cc32)sc1C(N)=O)c1ccccc1C(F)(F)F | 29.5 | 32.1 | 35.1 |
| O=C(/C=C\n1cnc(-c2cc(C(F)(F)F)cc(C(F)(F)F)c2)n1)NNc1cnccn1 [Selinexor] | 15.1 | 16.7 | 16.4 |
| Cc1c(F)cc(C(=O)NC2CC2)cc1-c1ccc(C(=O)NCC(C)(C)C)cn1 [Losmapimod] | 0 | 0 | 0 |
| O=C(O)CNC(=O)c1c(O)c2ccccc2n(Cc2ccccc2)c1=O [IOX-2] | 0 | 0 | 0 |
| CC[C@]1(O)C[C@H]2CN(CCc3c([nH]c4ccccc34)[C@@](C(=O)OC)(c3cc4c(cc3OC)N(C=O)[C@H]3[C@@](O)(C(=O)OC)[C@H](OC(C)=O)[C@]5(CC)C=CCN6CC[C@]43[C@@H]65)C2)C1 [Vincristine] | 20.2 | 23.1 | 20.3 |
| O=C(NC[C@H](O)CN1CCc2ccccc2C1)c1cc(NC2COC2)ncn1 | 0 | 0.2 | 0 |
| COc1cc2c(cc1-c1c(C)noc1C)ncc1[nH]c(=O)n([C@H](C)c3ccccn3)c12 [I-BET151] | 0.6 | 10.9 | 4.6 |
| Cc1ncc(Cl)cc1NCc1ccc(C(=O)N[C@@H](CC2CCCC2)C(=O)NC2CC2)s1 | 0 | 0 | 0 |
| CC(C)c1cc(-c2n[nH]c(=O)n2-c2ccc3c(ccn3C)c2)c(O)cc1O [Ganetespib] | 16.7 | 19.3 | 17.4 |
| COc1ccc(COc2cc3oc(=O)c4cc(C(C)O)ccc4c3cc2OC)cc1 (stereo not given) [Palomid-529] | 0 | 0.1 | 0 |
| CNC(=O)c1ccccc1Nc1cc(Nc2ccc(N3CCOCC3)cc2OC)ncc1C(F)(F)F [VS-4718] | 3.6 | 5.6 | 4.7 |
| CCN(CC)Cc1ccc2cc(COC(=O)Nc3ccc(C(=O)NO)cc3)ccc2c1 [Givinostat] | 4.8 | 7.1 | 4.5 |
| Oc1nc(-c2ccc(C(F)(F)F)cc2)nc2c1CSCC2 [XAV-939] | 0 | 0 | 0 |
| CN[C@@H](C)C(=O)N[C@H](C(=O)N1CCC[C@H]1c1nc(C(=O)c2ccc(F)cc2)cs1)C1CCCCC1 [NVP-LCL161] | 0 | 0.5 | 3.1 |
| CO[C@@H](C(=O)N1Cc2[nH]nc(NC(=O)c3ccc(N4CCN(C)CC4)cc3)c2C1)c1ccccc1 [Danusertib] | 4.4 | 8.4 | 5.6 |
